Where two headings read alike, the source gives them in different places.
Tests used:
recombinant human CK2 = recombinant human CK2 (Homo sapiens (Human), UniProt P68400); experiment: CK2 assay (cell-free, 33P-ATP filter plate); type: biochemical; conditions: cell-free assay; for IC50: 15 um ATP, read-out: CK2 (15 um ATP) IC50
[1] = tested on: HCT-116 human colorectal carcinoma cells; experiment: Cell-proliferation assay using Alamar Blue dye; type: cell-based; conditions: Homo sapiens;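 note: cells exposed to compound for about 4 days, then Alamar Blue added and dye fluorescence read after about 4 h, compared with medium-only control wells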
recombinant human PIM1 = recombinant human PIM1 (Homo sapiens (Human), UniProt P11309); experiment: PIM-1 kinase activity in cell-free in vitro assay; type: biochemical; conditions: for inhibition at 0.5 µM: 500 nM compound, read-out: PIM-1: % inh 500 nM
Jurkat = experiment: Cell proliferation modulatory activity, Jurkat; type: cell-based; conditions: Homo sapiens
K-562 [2] = experiment: Cell proliferation modulatory activity, K-562; type: cell-based; conditions: Homo sapiens, K562
K-562 [3] = experiment: Cell proliferation modulatory activity, K-562; type: cell-based; conditions: Homo sapiens, K562; K-562 cells; read-out: K-562 (uM), cell proliferation modulatory activity
PIM2 = PIM2 (Homo sapiens (Human), UniProt Q9P1W9); experiment: PIM2 IC50; type: biochemical; conditions: Table 45
[4] = HCT-116, HCT-116, second HCT-116 column (c8), read-out: HCT-116 (uM), cell proliferation modulatory activity
[5] = HCT-116, read-out: HCT-116 (uM), cell proliferation modulatory activity, HCT-116, second HCT-116 column (c8)

Chain of PIM2 (Q9P1W9 whole entry): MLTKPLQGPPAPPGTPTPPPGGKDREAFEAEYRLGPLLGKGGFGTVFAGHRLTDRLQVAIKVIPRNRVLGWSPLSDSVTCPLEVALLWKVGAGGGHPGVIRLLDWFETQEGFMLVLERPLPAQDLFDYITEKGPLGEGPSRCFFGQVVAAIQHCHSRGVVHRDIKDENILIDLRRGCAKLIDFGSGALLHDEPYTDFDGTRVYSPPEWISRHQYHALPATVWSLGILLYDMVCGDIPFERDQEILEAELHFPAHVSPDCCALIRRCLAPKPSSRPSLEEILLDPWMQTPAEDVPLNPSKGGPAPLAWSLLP
Chain of recombinant human PIM1 (P11309 whole entry): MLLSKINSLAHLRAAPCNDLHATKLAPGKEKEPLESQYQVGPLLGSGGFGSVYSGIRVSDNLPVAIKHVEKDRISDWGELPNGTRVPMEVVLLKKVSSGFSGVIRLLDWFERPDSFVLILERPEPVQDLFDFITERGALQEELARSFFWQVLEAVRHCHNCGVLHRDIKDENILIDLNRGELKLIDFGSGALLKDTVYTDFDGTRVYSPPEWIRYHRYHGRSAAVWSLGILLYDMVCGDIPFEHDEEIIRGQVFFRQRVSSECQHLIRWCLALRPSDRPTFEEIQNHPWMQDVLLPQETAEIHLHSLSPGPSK
Chain of recombinant human CK2 (P68400 whole entry): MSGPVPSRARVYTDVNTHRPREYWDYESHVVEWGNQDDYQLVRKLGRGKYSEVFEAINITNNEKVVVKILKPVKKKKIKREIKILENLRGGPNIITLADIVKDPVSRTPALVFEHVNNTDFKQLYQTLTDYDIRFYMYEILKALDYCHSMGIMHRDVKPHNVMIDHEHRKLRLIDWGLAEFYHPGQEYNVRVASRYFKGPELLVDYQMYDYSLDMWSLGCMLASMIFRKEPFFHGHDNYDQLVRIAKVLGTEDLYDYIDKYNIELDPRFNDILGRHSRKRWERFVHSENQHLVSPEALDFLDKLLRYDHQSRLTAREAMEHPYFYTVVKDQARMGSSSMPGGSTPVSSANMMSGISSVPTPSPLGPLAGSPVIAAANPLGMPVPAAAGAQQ
Chain of recombinant human CK2 (P67870 whole entry partner): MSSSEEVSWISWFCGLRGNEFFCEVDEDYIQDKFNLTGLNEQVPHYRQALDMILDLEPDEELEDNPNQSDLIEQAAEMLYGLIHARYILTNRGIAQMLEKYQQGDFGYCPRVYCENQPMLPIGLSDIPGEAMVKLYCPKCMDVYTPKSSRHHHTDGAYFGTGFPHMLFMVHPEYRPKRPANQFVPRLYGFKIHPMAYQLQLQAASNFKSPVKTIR

Compound | IC50 (recombinant human CK2) [nM] | IC50 [1, 4] [µM] | inhibition at 0.5 µM (recombinant human PIM1; cell-free assay) [%] | IC50 (Jurkat) [µM] | also measured
COCCNc1ncc2c(n1)c(NC1CC1)nc1cc(C(=O)O)ccc12 | 13 | > 10 | 17.2 | 13.7 | –
O=C(O)c1ccc2c(c1)nc(NC1CC1)c1nc(NCc3cccnc3)ncc12 | 23 | > 10 | – | > 50 | –
O=C(O)c1ccc2c(c1)nc(NC1CC1)c1nc(Nc3cccc(Cl)c3)ncc12 | 95 | > 10 | 23.2 | 2.17 | –
O=C(O)c1ccc2c(c1)nc(NC1CC1)c1nc(Nc3cccc(F)c3F)ncc12 | 17 | > 10 | 71.7 | 2.38 | –
O=C(O)c1ccc2c(c1)nc(NC1CC1)c1nc(NCCCO)ncc12 | 164 | > 10 | -15.9 | > 50 | –
CCOCCNc1ncc2c(n1)c(NC1CC1)nc1cc(C(=O)O)ccc12 | 58 | > 10 | -8.19 | 18.1 | –
CC(Nc1ncc2c(n1)c(NC1CC1)nc1cc(C(=O)O)ccc12)c1ccccc1 (stereo not drawn) | 228 | > 10 | -32.7 | 28.7 | –
CC(C)OCCCNc1ncc2c(n1)c(NC1CC1)nc1cc(C(=O)O)ccc12 | 74 | > 10 | -40.2 | 16.6 | –
O=C(O)c1ccc2c(c1)nc(NC1CC1)c1nc(NCC3CCCO3)ncc12 (stereo not drawn) | 42 | > 10 | 10.5 | 21.5 | –
CCOCCCNc1ncc2c(n1)c(NC1CC1)nc1cc(C(=O)O)ccc12 | 45 | 3.64 | 9.55 | 2.02 | –
CC(C)OCCNc1ncc2c(n1)c(NC1CC1)nc1cc(C(=O)O)ccc12 | 64 | > 10 | -2.46 | 7.37 | IC50 (recombinant human PIM1; cell-free assay): > 1100 nM
O=C(O)c1ccc2c(c1)nc(NC1CC1)c1nc(NCC3CC3)ncc12 | 8 | > 10 | 15.7 | 4.41 | –
CC(C)C(CO)Nc1ncc2c(n1)c(NC1CC1)nc1cc(C(=O)O)ccc12 (stereo not drawn) | 167 | > 10 | -8.31 | 44.7 | –
NC(=O)c1ccc2c(c1)nc(NC1CC1)c1nc(NC3CC3)ncc12 | 135 | 1.33 | -10.8 | 0.504 | –
CNC(=O)c1ccc2c(c1)nc(NC1CC1)c1nc(NC3CC3)ncc12 | > 750 | 1.08 | -16.2 | 0.618 | –
O=C(NCc1ccccn1)c1ccc2c(c1)nc(NC1CC1)c1nc(NC3CC3)ncc12 | > 750 | 3.07 | -17.1 | 1.95 | –
COCCNC(=O)c1ccc2c(c1)nc(NC1CC1)c1nc(NC3CC3)ncc12 | > 750 | 3.87 | -16.1 | 1.64 | –
O=C(Nc1ccccc1)c1ccc2c(c1)nc(NC1CC1)c1nc(NC3CC3)ncc12 | > 750 | 3.16 | -5.17 | 0.989 | –
O=C(NCCN1CCOCC1)c1ccc2c(c1)nc(NC1CC1)c1nc(NC3CC3)ncc12 | > 750 | > 10 | 2.65 | 1.43 | –
NCCNC(=O)c1ccc2c(c1)nc(NC1CC1)c1nc(NC3CC3)ncc12 | > 750 | > 10 | 3.79 | 2.36 | –
CN(C)C(=O)c1ccc2c(c1)nc(NC1CC1)c1nc(NC3CC3)ncc12 | > 750 | 1.12 | 1.62 | 0.583 | –
COC(=O)c1ccc2c(c1)nc(NC1CC1)c1nc(C#N)ncc12 | – | > 10 | 2.81 | – | IC50 (K-562 [2]): 1.34 µM
O=C(O)c1ccc2c(c1)nc(NCc1cccc3ccccc13)c1ccncc12 | – | > 10 | 15.6 | – | IC50 (K-562 [2]): > 10 µM

Compound | IC50 (recombinant human CK2) [nM] | IC50 [1, 4] [µM] | inhibition at 0.5 µM (recombinant human PIM1; cell-free assay) [%] | IC50 (Jurkat) [µM] | also measured
Cc1cccc(N2CCN(c3nc4cc(C(=O)O)ccc4c4cnccc34)CC2)c1 | – | > 10 | 33.7 | – | IC50 (K-562 [2]): > 10 µM
Fc1cc(Cl)cc(Nc2nc3cc(-c4nnn[nH]4)ccc3c3ccsc23)c1 | – | – | 22.9 | – | inhibition at 0.5 µM (recombinant human CK2; 500 nM compound, read-out: CK2: % inh 500 nM): 45.4%; IC50 ([1]; HCT-116, second of two HCT-116 columns (c8), read-out: HCT-116 (uM), cell proliferation modulatory activity): > 10 µM; IC50 (K-562 [3]): > 10 µM
c1cc(-c2nc[nH]n2)c2nc(NCc3ccncc3)c3ccncc3c2c1 | – | – | – | – | IC50 (recombinant human PIM1; Table 45): < 500 nM; IC50 (PIM2): < 1000 nM
c1ccc(CNc2nc3c(-c4nc[nH]n4)cccc3c3cnccc23)nc1 | – | – | – | – | IC50 (recombinant human PIM1; Table 45): < 500 nM; IC50 (PIM2): < 500 nM
CN1CCC(CNc2nc3c(-c4nnc[nH]4)cccc3c3cnccc23)CC1 | – | – | – | – | IC50 (recombinant human PIM1; Table 45): < 500 nM; IC50 (PIM2): > 1100 nM
c1cncc(CNc2nc3c(-c4nc[nH]n4)cccc3c3cnccc23)c1 | – | – | – | – | IC50 (recombinant human PIM1; Table 45): < 500 nM; IC50 (PIM2): > 1100 nM
CN1CCN(c2nc3c(-c4nc[nH]n4)cccc3c3cnccc23)CC1 | – | – | – | – | IC50 (recombinant human PIM1; Table 45): < 1000 nM; IC50 (PIM2): > 1100 nM
NC(=O)c1cc(F)cc2c1nc(Nc1cccc(Cl)c1)c1ccncc12 | – | – | – | – | IC50 (recombinant human PIM1; Table 45): < 1000 nM; IC50 (PIM2): > 1100 nM
c1cc(-c2nc[nH]n2)c2nc(NCCN3CCOCC3)c3ccncc3c2c1 | – | – | – | – | IC50 (recombinant human PIM1; Table 45): < 5000 nM; IC50 (PIM2): > 1100 nM
CN(C)CCNc1nc2c(-c3nc[nH]n3)cccc2c2cnccc12 | – | – | – | – | IC50 (recombinant human PIM1; Table 45): < 5000 nM; IC50 (PIM2): > 1100 nM
CCN1CCCC1CNc1nc2c(-c3nc[nH]n3)cccc2c2cnccc12 (stereo not drawn) | – | – | – | – | IC50 (recombinant human PIM1; Table 45): > 1100 nM; IC50 (PIM2): > 1100 nM
O=C(O)c1cc(F)cc2c1nc(Nc1cccc(Cl)c1)c1ccncc12 | – | – | – | – | IC50 (recombinant human PIM1; Table 45): > 1100 nM; IC50 (PIM2): > 1100 nM
O=C(O)c1cc(F)cc2c1nc(Nc1cccc(Cl)c1)c1cnccc12 | – | – | – | – | IC50 (recombinant human PIM1; Table 45): > 1100 nM; IC50 (PIM2): > 1100 nM
O=C(O)c1ccc2c(c1)nc(NC1CC1)c1nc(NC3CC3)ncc12 [drawing 1616] | – | – | 27.1 | 3.45 | IC50 [1, 5]: > 10 µM
O=C(O)c1ccc2c(c1)nc(NC1CC1)c1nc(NCc3ccccc3)ncc12 [drawing 1617] | – | – | 34.5 | 8.82 | IC50 [1, 5]: > 10 µM
O=C(O)c1ccc2c(c1)nc(NC1CC1)c1nc(Nc3ccccc3)ncc12 [drawing 1618] | – | – | 46 | 4.6 | IC50 [1, 5]: > 10 µM
O=C(O)c1ccc2c(c1)nc(N1CCOCC1)c1nc(NC3CC3)ncc12 [drawing 1627] | – | > 10 | 26 | 3.67 | –
COC(=O)c1ccc2c(c1)nc(NC1CC1)c1nc(SC)ncc12 [drawing 1641] | – | > 10 | 17.1 | > 50 | –
CN(C)CCNc1nc2cc(C(=O)O)ccc2c2cnc(NC3CC3)nc12 [drawing 1642] | – | > 10 | -37.5 | 34 | –
CCCNc1ncc2c(n1)c(NC1CC1)nc1cc(C(=O)O)ccc12 [drawing 1645] | – | – | 13.2 | 9.37 | IC50 [1, 5]: > 10 µM
Fc1cc(-c2nnc[nH]2)c2nc(Nc3cccc(Cl)c3)c3ccncc3c2c1 [drawing 2259] | – | – | – | – | IC50 (recombinant human PIM1; Table 45): < 1000 nM; IC50 (PIM2): < 1000 nM
Fc1cc(-c2nnc[nH]2)c2nc(Nc3cccc(Cl)c3)c3ccncc3c2c1 [drawing 2269] | – | – | – | – | IC50 (recombinant human PIM1; Table 45): > 1100 nM; IC50 (PIM2): > 1100 nM
